Assay type in all cases: functional
Assay [1] relates to Streptococcus pyogenes. Briefly: Antibacterial activity against erythromycin susceptible Streptococcus pyogenes by agar microdilution method.
For assay [2], the system named is Haemophilus influenzae. The assay can be described thus: Antibacterial activity against Haemophilus influenzae by agar microdilution method.
Assay [3] deals with Streptococcus pneumoniae. Briefly: Antibacterial activity against erythromycin susceptible Streptococcus pneumoniae by agar microdilution method.
Assay [4] concerns Staphylococcus aureus. The assay can be described thus: Antibacterial activity against erythromycin susceptible Staphylococcus aureus by agar microdilution method.
Assay [5] deals with Staphylococcus aureus. Briefly: Antibacterial activity against constitutively macrolide/lincosamide/streptogramin B-resistant Staphylococcus aureus by agar microdilution method.
The subject of assay [6] is Staphylococcus aureus. The assay can be described thus: Antibacterial activity against inducibly macrolide/lincosamide/streptogramin B-resistant Staphylococcus aureus by agar microdilution method.
In assay [7] the test system is Streptococcus pneumoniae. Briefly: Antibacterial activity against constitutively macrolide/lincosamide/streptogramin B-resistant Streptococcus pneumoniae by agar microdilution method.
The subject of assay [8] is Streptococcus pyogenes. The assay can be described thus: Antibacterial activity against constitutively macrolide/lincosamide/streptogramin B-resistant Streptococcus pyogenes by agar microdilution method.
Assay [9] concerns Streptococcus pyogenes. Briefly: Antibacterial activity against Mef-mediated macrolide efflux resistant Streptococcus pyogenes by agar microdilution method.
The subject of assay [10] is Streptococcus pneumoniae. The assay can be described thus: Antibacterial activity against Mef-mediated macrolide efflux resistant Streptococcus pneumoniae by agar microdilution method.

Structures are written as SMILES. Converted amounts (≈) assume the structure as drawn.

This is an account of results in ChEMBL document CHEMBL4041467, “Synthesis of novel 15-membered 8a-azahomoerythromycin A acylides: Consequences of structural modification at the C-3 and C-6 position on antibacterial activity” (Eur J Med Chem, 2017).

For the compound `NCCNc1cc2c(cc1F)c(=O)c(C(=O)O)cn2C1CC1`, the MIC in [1], in [2], in [3] and in assay [4] was > 64 mg/L throughout.

As for `O=C(O)c1cn(C2CC2)c2ccc(N3CCNCC3)cc2c1=O`, the MIC in [1], in assay [2], in assay [3] and in assay [4] was > 64 mg/L in each case.

`C=CCO[C@]1(C)C[C@@H](C)NC(=O)[C@H](C)[C@@H](O)[C@](C)(O)[C@@H](CC)OC(=O)[C@H](C)[C@@H](OC(=O)CCN(C)CCc2ccc([N+](=O)[O-])cc2)[C@H](C)[C@H]1O[C@@H]1O[C@H](C)C[C@H](N(C)C)[C@H]1O`: the MIC is > 64 mg/L in [5]; 0.5 mg/L (≈ 0.578 µM) in [6]; ≤ 0.125 mg/L in assay [1]; > 64 mg/L in assay [7]; > 64 mg/L in [8]; 8 mg/L (≈ 9.25 µM) in assay [2]. The MIC is ≤ 0.125 mg/L in assay [3] and 0.5 mg/L (≈ 0.578 µM) in assay [4].

Consider `C=CCO[C@]1(C)C[C@@H](C)NC(=O)[C@H](C)[C@@H](OC(=O)C=C)[C@](C)(O)[C@@H](CC)OC(=O)[C@H](C)[C@@H](OC(=O)C=C)[C@H](C)[C@H]1O[C@@H]1O[C@H](C)C[C@H](N(C)C)[C@H]1O`, for which the MIC in [9] was > 64 mg/L; in assay [5], > 64 mg/L; in assay [6], > 64 mg/L; in assay [1], 32 mg/L (≈ 43.3 µM); in [7], > 64 mg/L; in [8], > 64 mg/L. Further, the MIC in assay [2] is > 64 mg/L; in assay [10], > 64 mg/L; in [3], 32 mg/L (≈ 43.3 µM); in assay [4], 32 mg/L (≈ 43.3 µM).

Regarding `C=CCO[C@]1(C)C[C@@H](C)NC(=O)[C@H](C)[C@@H](O)[C@](C)(O)[C@@H](CC)OC(=O)[C@H](C)[C@@H](OC(=O)CCNCCCc2ccccc2)[C@H](C)[C@H]1O[C@@H]1O[C@H](C)C[C@H](N(C)C)[C@H]1O`, the MIC is 8 mg/L (≈ 9.76 µM) in [9]; > 64 mg/L in assay [5]; 4 mg/L (≈ 4.88 µM) in [6]; 2 mg/L (≈ 2.44 µM) in assay [1]; > 64 mg/L in assay [7]; > 64 mg/L in assay [8]. Moreover, the MIC was 16 mg/L (≈ 19.5 µM) in assay [2], 4 mg/L (≈ 4.88 µM) in [10], 1 mg/L (≈ 1.22 µM) in assay [3] and 2 mg/L (≈ 2.44 µM) in [4].

With `NCCNc1cc2c(=O)c(C(=O)O)cn(C3CC3)c2cc1Cl`, the MIC in assay [1], in assay [2], in assay [3] and in assay [4] was > 64 mg/L each time.

As for `C=CCO[C@]1(C)C[C@@H](C)NC(=O)[C@H](C)[C@@H](O)[C@](C)(O)[C@@H](CC)OC(=O)[C@H](C)[C@@H](OC(=O)C=C)[C@H](C)[C@H]1O[C@@H]1O[C@H](C)C[C@H](N(C)C)[C@H]1O`, the MIC in assay [9] is > 64 mg/L; in assay [5], > 64 mg/L; in [6], > 64 mg/L; in assay [1] it was 16 mg/L (≈ 23.4 µM); in assay [7], > 64 mg/L; in [8], > 64 mg/L. The MIC is > 64 mg/L in assay [2], > 64 mg/L in [10], 16 mg/L (≈ 23.4 µM) in assay [3] and 32 mg/L (≈ 46.7 µM) in assay [4].

Turning to `CC[C@H]1OC(=O)[C@H](C)C(=O)[C@H](C)[C@@H](O[C@@H]2O[C@H](C)C[C@H](N(C)C)[C@H]2O)[C@](C)(OCC=Cc2cnc3ccccc3c2)C[C@@H](C)C(=O)[C@H](C)[C@H]2NC(=O)O[C@@]21C` [CETHROMYCIN], the MIC in assay [9] was ≤ 0.125 mg/L; in assay [5], > 64 mg/L; in assay [6], 0.25 mg/L (≈ 0.326 µM); in [1], ≤ 0.06 mg/L; in assay [7], ≤ 0.125 mg/L; in assay [8], 1 mg/L (≈ 1.31 µM). The MIC was 2 mg/L (≈ 2.61 µM) in [2], ≤ 0.06 mg/L in [3] and ≤ 0.125 mg/L in assay [4].

Regarding `O=C(O)c1cn(C2CC2)c2cc(N3CCNCC3)c(F)cc2c1=O` [CIPROFLOXACIN], the MIC is ≤ 0.125 mg/L in assay [9]; 2 mg/L (≈ 6.04 µM) in [1]; 0.25 mg/L (≈ 0.754 µM) in assay [7]; 0.5 mg/L (≈ 1.51 µM) in assay [8]; ≤ 0.125 mg/L in assay [2]; 0.25 mg/L (≈ 0.754 µM) in assay [10]. The MIC in [3] and in assay [4] was ≤ 0.125 mg/L each time.
